Experimental data taken from patent publication US12077503B2, “Substituted cyclic amides and their use as herbicides” (FMC CORPORATION, priority 2015, dated 2024).

Experiments:
Type in all cases: in vivo
Kochia (Kochia scoparia) [1] = test: Test A preemergence; conditions: for Plant response rating, Kochia: 125 g ai/ha; for Kochia plant response rating (0 to 100 scale, 0 is no effect, 100 is complete control): visual injury approx. 10 d
Procedure, shortened: (§1)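 Seeded soil received test chemicals as a preemergence directed spray, and seedlings at one to two leaves, 2–10 cm tall, received them postemergence, in a non-phytotoxic, surfactant-containing solvent mixture. Pots were held in a greenhouse for approximately 10 d, then rated for injury from 0, no effect, to 100, complete control.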

[2] = system: barnyardgrass (Echinochloa crus-galli); test: Test A preemergence; conditions: for Plant response rating, Barnyardgrass: 125 g ai/ha; for Barnyardgrass plant response rating (0 to 100 scale, 0 is no effect, 100 is complete control): visual injury approx. 10 d
Procedure, shortened: as §1

[3] = system: giant foxtail (Setaria faberii); test: Test A preemergence; conditions: for Plant response rating, Foxtail, Giant: 125 g ai/ha; for Foxtail, Giant plant response rating (0 to 100 scale, 0 is no effect, 100 is complete control): visual injury approx. 10 d
Procedure, shortened: as §1

[4] = system: pigweed (Amaranthus retroflexus); test: Test A preemergence; conditions: for Plant response rating, Pigweed: 125 g ai/ha; for Pigweed plant response rating (0 to 100 scale, 0 is no effect, 100 is complete control): visual injury approx. 10 d
[5] = system: ragweed (common ragweed, Ambrosia elatior); test: Test A preemergence; conditions: for Plant response rating, Ragweed: 125 g ai/ha; for Ragweed plant response rating (0 to 100 scale, 0 is no effect, 100 is complete control): visual injury approx. 10 d
Procedure, shortened: as §1

[6] = system: ryegrass, Italian (Italian ryegrass, Lolium multiflorum); test: Test A preemergence; conditions: for Plant response rating, Ryegrass, Italian: 125 g ai/ha; for Ryegrass, Italian plant response rating (0 to 100 scale, 0 is no effect, 100 is complete control): visual injury approx. 10 d
Procedure, shortened: as §1

[7] = system: Galium (catchweed bedstraw, Galium aparine); test: Test A postemergence; conditions: for Galium plant response rating: 125 g ai/ha, visual injury rating on 0 to 100 scale (0 no effect, 100 complete control), approx. 10 d; for Plant response rating, Galium: 500 g ai/ha
Procedure, shortened: as §1

Kochia (Kochia scoparia) [8] = test: Test A postemergence; conditions: for Kochia plant response rating: 125 g ai/ha, visual injury rating on 0 to 100 scale (0 no effect, 100 complete control), approx. 10 d; for Plant response rating, Kochia: 500 g ai/ha
Procedure, shortened: as §1

[9] = system: barnyardgrass (Echinochloa crus-galli); test: Test A postemergence; conditions: for Barnyardgrass plant response rating: visual injury rating on 0 to 100 scale (0 no effect, 100 complete control)
Procedure, shortened: as §1

[10] = system: blackgrass (Alopecurus myosuroides); test: Test A postemergence; conditions: for Blackgrass plant response rating: visual injury rating on 0 to 100 scale (0 no effect, 100 complete control)
Procedure, shortened: as §1

corn (Zea mays) = test: Test A postemergence; conditions: for Corn plant response rating: 125 g ai/ha, visual injury rating on 0 to 100 scale (0 no effect, 100 complete control), approx. 10 d; for Plant response rating, Corn: 500 g ai/ha
Procedure, shortened: as §1

[11] = system: giant foxtail (Setaria faberii); test: Test A postemergence; conditions: for Foxtail, Giant plant response rating: 125 g ai/ha, visual injury rating on 0 to 100 scale (0 no effect, 100 complete control), approx. 10 d; for Plant response rating, Foxtail, Giant: 500 g ai/ha
Procedure, shortened: as §1

[12] = system: pigweed (Amaranthus retroflexus); test: Test A postemergence; conditions: for Pigweed plant response rating: 125 g ai/ha, visual injury rating on 0 to 100 scale (0 no effect, 100 complete control), approx. 10 d; for Plant response rating, Pigweed: 500 g ai/ha
Procedure, shortened: as §1

[13] = system: ragweed (common ragweed, Ambrosia elatior); test: Test A postemergence; conditions: for Ragweed plant response rating: 125 g ai/ha, visual injury rating on 0 to 100 scale (0 no effect, 100 complete control), approx. 10 d; for Plant response rating, Ragweed: 500 g ai/ha
Procedure, shortened: as §1

[14] = system: ryegrass, Italian (Italian ryegrass, Lolium multiflorum); test: Test A postemergence; conditions: for Ryegrass, Italian plant response rating: 125 g ai/ha, visual injury rating on 0 to 100 scale (0 no effect, 100 complete control), approx. 10 d; for Plant response rating, Ryegrass, Italian: 500 g ai/ha
Procedure, shortened: as §1

[15] = system: wheat (Triticum aestivum); test: Test A postemergence; conditions: for Wheat plant response rating: 125 g ai/ha, visual injury rating on 0 to 100 scale (0 no effect, 100 complete control), approx. 10 d; for Plant response rating, Wheat: 500 g ai/ha
Procedure, shortened: as §1

[16] = system: barnyardgrass (Echinochloa crus-galli); test: Test B flooded paddy test; conditions: Flood, 0 to 100 scale where 0 is no effect and 100 is complete control, 13 to 15 d
Procedure, shortened: (§2)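 Evaluation by eye, against controls, occurred 13–15 d post-treatment in a greenhouse, using a 0 (no effect) to 100 (complete control) scale. Application was into the paddy water, 3 cm deep over the soil, on 2-leaf plants.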

[17] = system: ducksalad (Heteranthera limosa); test: Test B flooded paddy test; conditions: Flood, 0 to 100 scale where 0 is no effect and 100 is complete control, 13 to 15 d
Procedure, shortened: as §2

rice (Oryra sativa) = test: Test B flooded paddy test; conditions: Flood, 0 to 100 scale where 0 is no effect and 100 is complete control, 13 to 15 d
Procedure, shortened: as §2

[18] = system: sedge, umbrella (small-flower umbrella sedge, Cyperus difformis); test: Test B flooded paddy test; conditions: Flood, 0 to 100 scale where 0 is no effect and 100 is complete control, 13 to 15 d
Procedure, shortened: as §2

[19] = preemergence, 0 to 100 scale (0 no effect, 100 complete control)
[20] = Preemergence, 500 g ai/ha, 0 is no effect, 100 is complete control
[21] = postemergence, 0 to 100 scale, 0 no effect, 100 complete control
[22] = 500 g ai/ha, postemergence, 0 to 100 scale, 0 no effect, 100 complete control
[23] = Postemergence, 125 g ai/ha, visual injury, 0 to 100 scale (0 no effect, 100 complete control), approx. 10 d
[24] = Preemergence, visual injury after approximately 10 d, 0 to 100 scale where 0 is no effect and 100 is complete control
[25] = Postemergence, 0 to 100 scale where 0 is no effect and 100 is complete control
[26] = 125 g ai/ha, postemergence, approx. 10 d
[27] = Postemergence, 500 g ai/ha, 0 to 100 scale where 0 is no effect and 100 is complete control

O=C1NCC(c2cccc(OCC(F)F)c2)C1C(=O)Nc1cccc(F)c1F (stereo not drawn) [Compound 389]
Plant response rating, Kochia (Kochia (Kochia scoparia) [1]; [19]): 0
Kochia plant response rating (0 to 100 scale) (Kochia (Kochia scoparia) [1]; [20]): 0
Plant response rating, Barnyardgrass [2, 19]: 70
Barnyardgrass plant response rating (0 to 100 scale) [2, 20]: 70
Plant response rating, Foxtail, Giant [3, 19]: 80
Foxtail, Giant plant response rating (0 to 100 scale) [3, 20]: 90
Plant response rating, Pigweed [4, 19]: 0
Pigweed plant response rating (0 to 100 scale) [4, 20]: 0
Plant response rating, Ragweed [5, 19]: 0
Ragweed plant response rating (0 to 100 scale) [5, 20]: 0
Plant response rating, Ryegrass, Italian [6, 19]: 0
Ryegrass, Italian plant response rating (0 to 100 scale) [6, 20]: 0
Galium plant response rating ([7]; postemergence): 0
Plant response rating, Galium [7, 21]: 0
Kochia plant response rating (Kochia (Kochia scoparia) [8]; postemergence): 0
Plant response rating, Kochia (Kochia (Kochia scoparia) [8]; [21]): 0
Plant response rating, Barnyardgrass [9, 22]: 70
Plant response rating, Barnyardgrass [9, 23]: 50
Plant response rating, Blackgrass [10, 22]: 0
Plant response rating, Blackgrass [10, 23]: 0
Corn plant response rating (corn (Zea mays); postemergence): 30
Plant response rating, Corn (corn (Zea mays); [21]): 50
Foxtail, Giant plant response rating ([11]; postemergence): 60
Plant response rating, Foxtail, Giant [11, 21]: 70
Pigweed plant response rating ([12]; postemergence): 0
Plant response rating, Pigweed [12, 21]: 20
Ragweed plant response rating ([13]; postemergence): 0
Plant response rating, Ragweed [13, 21]: 0
Ryegrass, Italian plant response rating ([14]; postemergence): 0
Plant response rating, Ryegrass, Italian [14, 21]: 0
Wheat plant response rating ([15]; postemergence): 0
Plant response rating, Wheat [15, 21]: 0
Plant response rating, Barnyardgrass ([16]; 500 g ai/ha): 60
Plant response rating, Ducksalad ([17]; 500 g ai/ha): 100
Plant response rating, Rice (rice (Oryra sativa); 500 g ai/ha): 15
Plant response rating, Sedge, Umbrella ([18]; 500 g ai/ha): 0

O=C1NCC(c2c(F)cccc2F)C1C(=O)Nc1ccccc1F (racemic) [Compound 515]
Plant response rating, Kochia (Kochia (Kochia scoparia) [1]; [24]): 0
Kochia plant response rating (0 to 100 scale, 0 is no effect, 100 is complete control) (Kochia (Kochia scoparia) [1]; Preemergence, 500 g ai/ha): 0
Plant response rating, Barnyardgrass [2, 24]: 0
Barnyardgrass plant response rating (0 to 100 scale, 0 is no effect, 100 is complete control) ([2]; Preemergence, 500 g ai/ha): 0
Plant response rating, Foxtail, Giant [3, 24]: 0
Foxtail, Giant plant response rating (0 to 100 scale, 0 is no effect, 100 is complete control) ([3]; Preemergence, 500 g ai/ha): 70
Plant response rating, Pigweed [4, 24]: 0
Pigweed plant response rating (0 to 100 scale, 0 is no effect, 100 is complete control) ([4]; Preemergence, 500 g ai/ha): 0
Plant response rating, Ragweed [5, 24]: 0
Ragweed plant response rating (0 to 100 scale, 0 is no effect, 100 is complete control) ([5]; Preemergence, 500 g ai/ha): 0
Plant response rating, Ryegrass, Italian [6, 24]: 0
Ryegrass, Italian plant response rating (0 to 100 scale, 0 is no effect, 100 is complete control) ([6]; Preemergence, 500 g ai/ha): 0
Galium plant response rating ([7]; postemergence): 0
Plant response rating, Galium [7, 25]: 0
Kochia plant response rating (Kochia (Kochia scoparia) [8]; postemergence): 0
Plant response rating, Kochia (Kochia (Kochia scoparia) [8]; [25]): 0
Barnyardgrass plant response rating [9, 26]: 0
Plant response rating, Barnyardgrass [9, 27]: 20
Blackgrass plant response rating [10, 26]: 0
Plant response rating, Blackgrass [10, 27]: 0
Corn plant response rating (corn (Zea mays); postemergence): 0
Plant response rating, Corn (corn (Zea mays); [25]): 0
Foxtail, Giant plant response rating ([11]; postemergence): 0
Plant response rating, Foxtail, Giant [11, 25]: 0
Pigweed plant response rating ([12]; postemergence): 0
Plant response rating, Pigweed [12, 25]: 0
Ragweed plant response rating ([13]; postemergence): 0
Plant response rating, Ragweed [13, 25]: 0
Ryegrass, Italian plant response rating ([14]; postemergence): 0
Plant response rating, Ryegrass, Italian [14, 25]: 0
Wheat plant response rating ([15]; postemergence): 0
Plant response rating, Wheat [15, 25]: 0
Plant response rating, Barnyardgrass ([16]; 250 g ai/ha): 0
Plant response rating, Ducksalad ([17]; 250 g ai/ha): 0
Plant response rating, Rice (rice (Oryra sativa); 250 g ai/ha): 0
Plant response rating, Sedge, Umbrella ([18]; 250 g ai/ha): 0

CN1CC(c2ccc(Cl)cc2)C(C(=O)Nc2cccc(F)c2F)C1=O (stereo not drawn) [Compound 434]
Plant response rating, Kochia (Kochia (Kochia scoparia) [1]; [19]): 70
Kochia plant response rating (0 to 100 scale, 0 is no effect, 100 is complete control) (Kochia (Kochia scoparia) [1]; Preemergence, 500 g ai/ha): 80
Plant response rating, Barnyardgrass [2, 19]: 90
Barnyardgrass plant response rating (0 to 100 scale, 0 is no effect, 100 is complete control) ([2]; Preemergence, 500 g ai/ha): 90
Plant response rating, Foxtail, Giant [3, 19]: 90
Foxtail, Giant plant response rating (0 to 100 scale, 0 is no effect, 100 is complete control) ([3]; Preemergence, 500 g ai/ha): 100
Plant response rating, Pigweed [4, 19]: 80
Pigweed plant response rating (0 to 100 scale, 0 is no effect, 100 is complete control) ([4]; Preemergence, 500 g ai/ha): 90
Plant response rating, Ragweed [5, 19]: 50
Ragweed plant response rating (0 to 100 scale, 0 is no effect, 100 is complete control) ([5]; Preemergence, 500 g ai/ha): 60
Plant response rating, Ryegrass, Italian [6, 19]: 60
Ryegrass, Italian plant response rating (0 to 100 scale, 0 is no effect, 100 is complete control) ([6]; Preemergence, 500 g ai/ha): 90
Galium plant response rating ([7]; postemergence): 60
Plant response rating, Galium [7, 21]: 60
Kochia plant response rating (Kochia (Kochia scoparia) [8]; postemergence): 70
Plant response rating, Kochia (Kochia (Kochia scoparia) [8]; [21]): 70
Barnyardgrass plant response rating [9, 26]: 90
Plant response rating, Barnyardgrass [9, 22]: 90
Blackgrass plant response rating [10, 26]: 50
Plant response rating, Blackgrass [10, 22]: 50
Corn plant response rating (corn (Zea mays); postemergence): 0
Plant response rating, Corn (corn (Zea mays); [21]): 70
Foxtail, Giant plant response rating ([11]; postemergence): 90
Plant response rating, Foxtail, Giant [11, 21]: 90
Pigweed plant response rating ([12]; postemergence): 60
Plant response rating, Pigweed [12, 21]: 70
Ragweed plant response rating ([13]; postemergence): 20
Plant response rating, Ragweed [13, 21]: 20
Ryegrass, Italian plant response rating ([14]; postemergence): 0
Plant response rating, Ryegrass, Italian [14, 21]: 50
Wheat plant response rating ([15]; postemergence): 20
Plant response rating, Wheat [15, 21]: 70
Plant response rating, Barnyardgrass ([16]; 250 g ai/ha): 70
Plant response rating, Ducksalad ([17]; 250 g ai/ha): 100
Plant response rating, Rice (rice (Oryra sativa); 250 g ai/ha): 0
Plant response rating, Sedge, Umbrella ([18]; 250 g ai/ha): 0
